Test results taken from US5705487A, “Antithrombotic agents” (priority 1995, dated 1998).
Structures can show the parent of a compound that is named as a salt.

Experiments:
Assay type in all cases: biochemical
Human Plasma [1] = experiment: Human plasma anticoagulation, activated partial thromboplastin time (APTT); settings: concentration required to double the clotting time
Protocol: (§1) Dog plasma and rat plasma is obtained from conscious mixed-breed hounds (either sex, Hazelton-LRE, Kalamazoo, Mich., U.S.A.) or from anesthetized male Sprague-Dawley rats (Harlan Sprague-Dawley, Inc., Indianapolis, Ind., U.S.A.) by venipuncture into 3.8 percent citrate. Fibrinogen is prepared from in-date ACD human blood as the fraction I-2 according to previous procedures and specifications. […] Human fibrinogen is also purchased as 98 percent pure/plasmin free from American Diagnostica, Greenwich, Conn. Coagulation reagents ACTIN, Thromboplastin, and Human plasma are from Baxter Healthcare Corp., Dade Division, Miami, Fla. Bovine thrombin from Parke-Davis ([…], Mich.) is used for coagulation assays in plasma.
(§2) Coagulation assay procedures are as previously described. […] A CoAScreener coagulation instrument (American LABor, Inc.) is used for all coagulation assay measurements. The prothrombin time (PT) is measured by adding 0.05 mL saline and 0.05 mL Thromboplastin-C reagent to 0.05 mL test plasma. The activated partial thromboplastin time (APTT) is measured by incubation of 0.05 mL test plasma with 0.05 mL Actin reagent for 120 seconds followed by 0.05 mL CaCl2 (0.02M). The thrombin time (TT) is measured by adding 0.05 mL saline and 0.05 mL thrombin (10 NIH units/mL) to 0.05 mL test plasma. The compounds of Formula I are added to human or animal plasma over a wide range of concentrations to determine prolongation effects on the APTT, PT, and TT assays. Linear extrapolations are performed to estimate the concentrations required to double the clotting time for each assay.

Human Plasma [2] = experiment: Human plasma anticoagulation, thrombin time (TT); settings: concentration required to double the clotting time
Protocol: as §1, §2

Bovine trypsin = biological target: T1, Bovine trypsin (Bos taurus, UniProt P00760); experiment: Kass, trypsin chromogenic substrate assay; settings: substrate N-Benzoyl-Phe-Val-Arg-p-nitroanilide
T1 construct: Bovine trypsin is purchased from Worthington Biochemicals; purchased Worthington Biochemicals, Freehold, N.J
T1 sequence (P00760 24-246): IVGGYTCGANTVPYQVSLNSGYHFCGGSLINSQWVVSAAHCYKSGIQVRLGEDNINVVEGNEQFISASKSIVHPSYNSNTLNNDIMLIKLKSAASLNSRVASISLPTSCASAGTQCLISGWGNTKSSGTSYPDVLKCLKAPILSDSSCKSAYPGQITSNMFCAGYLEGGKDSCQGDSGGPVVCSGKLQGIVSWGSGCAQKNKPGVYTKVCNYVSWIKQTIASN
Protocol: By substantially following the procedures described above for human thrombin, and using other human blood coagulation system serine proteases and proteases of the fibrinolytic system with the appropriate chromogenic substrates, identified below, selectivity of the compounds of the present invention with respect to the coagulation factor serine proteases and with respect to the fibrinolytic system serine proteases are evaluated as well as their substantial lack of interference with serine proteases of the fibrinolytic system.
Chromogenic substrates: N-Benzoyl-Ile-Glu-Gly-Arg-p-nitroanilide (for factor Xa); N-Cbz-D-Arg-Gly-Arg-p-nitroanilide (for factor IXa assay as the factor Xa substrate); Pyroglutamyl-Pro-Arg-p-nitroanilide (for Factor XIa and for aPC); H-D-Pro-Phe-Arg-p-nitroanilide (for factor XIIa); and Pyroglutamyl-Gly-Arg-p-nitroanilide (for urokinase); are purchased from KabiVirum, Stockholm, Sweden, or from Midwest Biotech, Fishers, Ind. Bovine trypsin is purchased from Worthington Biochemicals, Freehold, N.J., and human plasma kallikrein from Kabi Vitrum, Stockholm, Sweden. […] N-Benzoyl-Phe-Val-Arg-p-nitroanilide, the substrate for human thrombin and for trypsin, is synthesized according to procedures described above for the compounds of the present invention, using known methods of peptide coupling from commercially available reactants or purchased from Midwest Biotech, Fishers, Ind.

Human Thrombin = Human Thrombin (Homo sapiens, UniProt P00734); experiment: Inhibition of the amidase activity of thrombin (Kass); settings: chromogenic substrate N-benzoyl-Phe-Val-Arg-p-nitroanilide; mean over range of concentrations
Human Plasma [3] = experiment: Human plasma anticoagulation, prothrombin time (PT); settings: concentration required to double the clotting time
Protocol: as §1, §2

## Cl.N=C(N)c1ccc(CNC(=O)[C@@H]2CCCN2C(=O)[C@@H](CC2CCCCC2)NCC(=O)O)nn1 [Example 69, HO2 CCH2 -D-Cha-Pro-3-NHCH2 -6-amidinopyridazine.HCl]
Human Plasma [1]
  Human Plasma Anticoagulation 2x Clotting time APTT: 110 ng/mL
Human Plasma [2]
  Human Plasma Anticoagulation 2x Clotting time TT: 5. ng/mL
Bovine trypsin
  Kass × 10^6 (L/mole) Trypsin: 3.7 × 10^6 L/mole
Human Thrombin
  Kass × 10^6 (L/mole) Human Thrombin: 340 × 10^6 L/mole
Human Plasma [3]
  Human Plasma Anticoagulation 2x Clotting time PT: 220 ng/mL

## Cl.N=C(N)c1cc(CNC(=O)[C@@H]2CCCN2C(=O)[C@@H](CC2CCCCC2)NCC(=O)O)cs1 [Example 65, HO2 CCH2 -D-Cha-Pro-4-NHCH2 -2-amidinothiophene.HCl]
Human Plasma [1]
  Human Plasma Anticoagulation 2x Clotting time APTT: 48 ng/mL
Human Plasma [2]
  Human Plasma Anticoagulation 2x Clotting time TT: 1 ng/mL
Human Thrombin
  Kass × 10^6 (L/mole) Human Thrombin: 4,500 × 10^6 L/mole

## Cl.Nc1cc(CNC(=O)[C@@H]2CCCN2C(=O)[C@@H](CC2CCCCC2)NCC(=O)O)ccn1 [Example 73, HO2 CCH2 -D-Cha-Pro-4-NHCH2 -2-aminopyridine.HCl]
Human Plasma [1]
  Human Plasma Anticoagulation 2x Clotting time APTT: 340 ng/mL
Human Plasma [2]
  Human Plasma Anticoagulation 2x Clotting time TT: 21 ng/mL
Human Thrombin
  Kass × 10^6 (L/mole) Human Thrombin: 28 × 10^6 L/mole
Human Plasma [3]
  Human Plasma Anticoagulation 2x Clotting time PT: 330 ng/mL

## HOOCCH2 -D-Phe-Pro-p-NHCH2 C6 H4 C(NH)NH2.HCl [Example 46]
Human Plasma [2]
  Human Plasma Anticoagulation 2x Clotting time TT: 2. ng/mL

## Nc1ccc(CNC(=O)[C@@H]2CCCN2C(=O)[C@@H](CC2CCCCC2)NCC(=O)O)cc1F [Example 77, HO2 CCH2 -D-Cha-Pro-4-NHCH2 -2-F-aniline.HCl]
Human Plasma [1]
  Human Plasma Anticoagulation 2x Clotting time APTT: 1,600 ng/mL
Human Plasma [2]
  Human Plasma Anticoagulation 2x Clotting time TT: 53 ng/mL
Human Thrombin
  Kass × 10^6 (L/mole) Human Thrombin: 11 × 10^6 L/mole
Human Plasma [3]
  Human Plasma Anticoagulation 2x Clotting time PT: 890 ng/mL

## Cl.N=C(N)N1CC=C(CNC(=O)[C@@H]2CCCN2C(=O)[C@@H](CC2CCCCC2)NCC(=O)O)CC1 [Example 70, HO2 CCH2 -D-Cha-Pro-4-NHCH2 -1-amidino-3,4-dehydro-piperidine.HCl]
Human Plasma [1]
  Human Plasma Anticoagulation 2x Clotting time APTT: 160 ng/mL
Human Plasma [2]
  Human Plasma Anticoagulation 2x Clotting time TT: 2 ng/mL
Bovine trypsin
  Kass × 10^6 (L/mole) Trypsin: 9.8 × 10^6 L/mole
Human Thrombin
  Kass × 10^6 (L/mole) Human Thrombin: 430 × 10^6 L/mole
Human Plasma [3]
  Human Plasma Anticoagulation 2x Clotting time PT: 180 ng/mL

## CS(=O)(=O)CC(=O)N[C@H](CC1CCCCC1)C(=O)N1CCC[C@H]1C(=O)NCc1ccc(C(=N)N)cc1 [Example 92, MeSO2 CH2 CO-D-Cha-Pro-P-NHCH2 C6 H4 C(NH)NH2.HCl]
Human Plasma [1]
  Human Plasma Anticoagulation 2x Clotting time APTT: 210 ng/mL
Human Plasma [2]
  Human Plasma Anticoagulation 2x Clotting time TT: 8.9 ng/mL
Bovine trypsin
  Kass × 10^6 (L/mole) Trypsin: 7.7 × 10^6 L/mole
Human Thrombin
  Kass × 10^6 (L/mole) Human Thrombin: 130 × 10^6 L/mole
Human Plasma [3]
  Human Plasma Anticoagulation 2x Clotting time PT: 340 ng/mL

## CCS(=O)(=O)N[C@H](CC1CCCCC1)C(=O)N1CCC[C@H]1C(=O)NCc1ccc(C(=N)N)cc1.Cl [Example 80, EtSO2 -D-Cha-Pro-4-NHCH2 C6 H4 C(NH)NH2.HCl]
Human Plasma [1]
  Human Plasma Anticoagulation 2x Clotting time APTT: 40 ng/mL
Human Plasma [2]
  Human Plasma Anticoagulation 2x Clotting time TT: 4 ng/mL
Bovine trypsin
  Kass × 10^6 (L/mole) Trypsin: 90. × 10^6 L/mole
Human Plasma [3]
  Human Plasma Anticoagulation 2x Clotting time PT: 130 ng/mL

## Cl.Nc1cc(CCNC(=O)[C@@H]2CCCN2C(=O)[C@@H](CC2CCCCC2)NCC(=O)O)ccn1 [Example 76, HO2 CCH2 -D-Cha-Pro-4-NHCH2 CH2 -2-aminopyridine.HCl]
Human Plasma [1]
  Human Plasma Anticoagulation 2x Clotting time APTT: 490 ng/mL
Human Plasma [2]
  Human Plasma Anticoagulation 2x Clotting time TT: 29 ng/mL
Bovine trypsin
  Kass × 10^6 (L/mole) Trypsin: 0.36 × 10^6 L/mole
Human Thrombin
  Kass × 10^6 (L/mole) Human Thrombin: 12 × 10^6 L/mole
Human Plasma [3]
  Human Plasma Anticoagulation 2x Clotting time PT: 560 ng/mL

## N=C(N)C1CCC(CNC(=O)[C@@H]2CCCN2C(=O)[C@@H](CC2CCCCC2)NCC(=O)O)NC1 (stereo partly drawn) [Example 67, HO2 CCH2 -D-Cha-Pro-2-NHCH2 -5-amidinopiperidine.HCl]
Human Plasma [1]
  Human Plasma Anticoagulation 2x Clotting time APTT: 1,800 ng/mL
Human Plasma [2]
  Human Plasma Anticoagulation 2x Clotting time TT: 34. ng/mL
Human Thrombin
  Kass × 10^6 (L/mole) Human Thrombin: 11 × 10^6 L/mole
Human Plasma [3]
  Human Plasma Anticoagulation 2x Clotting time PT: 1,300 ng/mL

## 1-Piq-Pro-p-NHCH2 C6 H4 C(NH)NH2.2HCl [Example 18]
Human Plasma [2]
  Human Plasma Anticoagulation 2x Clotting time TT: 7 ng/mL

## Cl.N=C(N)c1ccc(CNC(=O)[C@@H]2CCCN2C(=O)[C@@H](CC2CCCCC2)NCC(=O)O)c(F)c1 [Example 71, HO2 CCH2 -D-Cha-Pro-4-NHCH2 -3-F-benzamidine.HCl]
Human Plasma [1]
  Human Plasma Anticoagulation 2x Clotting time APTT: 89 ng/mL
Human Plasma [2]
  Human Plasma Anticoagulation 2x Clotting time TT: 1 ng/mL
Bovine trypsin
  Kass × 10^6 (L/mole) Trypsin: 240. × 10^6 L/mole
Human Thrombin
  Kass × 10^6 (L/mole) Human Thrombin: 1,400 × 10^6 L/mole
Human Plasma [3]
  Human Plasma Anticoagulation 2x Clotting time PT: 150 ng/mL

## Cl.Nc1ccc(CNC(=O)[C@@H]2CCCN2C(=O)[C@@H](CC2CCCCC2)NCC(=O)O)cn1 [Example 74, HO2 CCH2 -D-Cha-Pro-5-NHCH2 -2-aminopyridine.HCl]
Human Plasma [1]
  Human Plasma Anticoagulation 2x Clotting time APTT: 420 ng/mL
Human Plasma [2]
  Human Plasma Anticoagulation 2x Clotting time TT: 20 ng/mL
Human Thrombin
  Kass × 10^6 (L/mole) Human Thrombin: 29 × 10^6 L/mole
Human Plasma [3]
  Human Plasma Anticoagulation 2x Clotting time PT: 350 ng/mL

## Cl.N=C(N)c1cc(F)c(CNC(=O)[C@@H]2CCCN2C(=O)[C@@H](CC2CCCCC2)NCC(=O)O)c(F)c1 [Example 72, HO2 CCH2 -D-Cha-Pro-4-NHCH2 -3,5-F2 -benzamidine.HCl]
Human Plasma [1]
  Human Plasma Anticoagulation 2x Clotting time APTT: 160 ng/mL
Human Plasma [2]
  Human Plasma Anticoagulation 2x Clotting time TT: 1 ng/mL
Bovine trypsin
  Kass × 10^6 (L/mole) Trypsin: 280 × 10^6 L/mole
Human Thrombin
  Kass × 10^6 (L/mole) Human Thrombin: 2,300 × 10^6 L/mole
Human Plasma [3]
  Human Plasma Anticoagulation 2x Clotting time PT: 160 ng/mL

## Cl.N=C(N)C1=CNC(CNC(=O)[C@@H]2CCCN2C(=O)[C@@H](CC2CCCCC2)NCC(=O)O)CC1 (stereo partly drawn) [Example 68, HO2 CCH2 -D-Cha-Pro-2-NHCH2 -5-amidino-5,6-dehydro-piperidine.HCl]
Human Plasma [1]
  Human Plasma Anticoagulation 2x Clotting time APTT: 49 ng/mL
Human Plasma [2]
  Human Plasma Anticoagulation 2x Clotting time TT: 4. ng/mL
Human Thrombin
  Kass × 10^6 (L/mole) Human Thrombin: 600 × 10^6 L/mole
Human Plasma [3]
  Human Plasma Anticoagulation 2x Clotting time PT: 190 ng/mL

## NCc1ccc(CNC(=O)[C@@H]2CCCN2C(=O)[C@@H](CC2CCCCC2)NCC(=O)O)cc1 [Example 78, HO2 CCH2 -D-Cha-Pro-4-NHCH2 C6 H4 CH2 NH2.HCl]
Human Plasma [1]
  Human Plasma Anticoagulation 2x Clotting time APTT: 430 ng/mL
Human Plasma [2]
  Human Plasma Anticoagulation 2x Clotting time TT: 46 ng/mL
Bovine trypsin
  Kass × 10^6 (L/mole) Trypsin: 8.6 × 10^6 L/mole
Human Thrombin
  Kass × 10^6 (L/mole) Human Thrombin: 11 × 10^6 L/mole
Human Plasma [3]
  Human Plasma Anticoagulation 2x Clotting time PT: 760 ng/mL

## Nc1ccc(CCNC(=O)[C@@H]2CCCN2C(=O)[C@@H](CC2CCCCC2)NCC(=O)O)cc1 [Example 63, HO2 CCH2 -D-Cha-Pro-4-NHCH2 CH2 C6 H4 NH2.HCl]
Human Plasma [2]
  Human Plasma Anticoagulation 2x Clotting time TT: 680 ng/mL
Human Thrombin
  Kass × 10^6 (L/mole) Human Thrombin: 0.31 × 10^6 L/mole

## CCS(=O)(=O)N[C@H](CC1CCCCC1)C(=O)N1CCC[C@H]1C(=O)NCc1ccc(N)cc1F.Cl [Example 82, EtSO2 -D-Cha-Pro-4-NHCH2 -3-F-C6 H3 NH2.HCl]
Human Plasma [1]
  Human Plasma Anticoagulation 2x Clotting time APTT: 3,800 ng/mL
Human Plasma [2]
  Human Plasma Anticoagulation 2x Clotting time TT: 130 ng/mL
Human Thrombin
  Kass × 10^6 (L/mole) Human Thrombin: 5.0 × 10^6 L/mole
Human Plasma [3]
  Human Plasma Anticoagulation 2x Clotting time PT: 3,000 ng/mL

## CCS(=O)(=O)N[C@@H](C(=O)N1[C@H](C(=O)NCc2ccc(C(=N)N)cc2)C[C@@H]2CCCC[C@@H]21)c1ccccc1 (relative stereo) [Example 44, EtSO2 -Phg-cis-Ohi-p-NHCH2 C6 H4 C(NH)NH2.HCl]
Human Plasma [2]
  Human Plasma Anticoagulation 2x Clotting time TT: 4. ng/mL

## EtSO2 -D-Phe-Pro-p-NHCH2 -C6 H4 C(=NH)NH2.HCl [Example 23]
Human Plasma [2]
  Human Plasma Anticoagulation 2x Clotting time TT: 7 ng/mL

## Nc1ccc(CNC(=O)[C@@H]2CCCN2C(=O)[C@@H](CC2CCCCC2)NCC(=O)O)cc1 [Example 62, HO2 CCH2 -D-Cha-Pro-4-NHCH2 C6 H4 NH2.HCl]
Human Plasma [2]
  Human Plasma Anticoagulation 2x Clotting time TT: 54 ng/mL
Human Thrombin
  Kass × 10^6 (L/mole) Human Thrombin: 7.6 × 10^6 L/mole

## Cl.Nc1ccc(CCNC(=O)[C@@H]2CCCN2C(=O)[C@@H](CC2CCCCC2)NCC(=O)O)cn1 [Example 75, HO2 CCH2 -D-Cha-Pro-5-NHCH2 CH2 -2-aminopyridine.HCl]
Human Thrombin
  Kass × 10^6 (L/mole) Human Thrombin: 0.45 × 10^6 L/mole

## N=C(N)c1ccc(CNC(=O)[C@@H]2CCCN2C(=O)[C@H](NCC(=O)O)C2CCCCC2)cc1 [Example 86, HOOCCH2 -D-Chg-Pro-p-NHCH2 C6 H4 C(NH)NH2.HCl]
Human Plasma [2]
  Human Plasma Anticoagulation 2x Clotting time TT: 4 ng/mL
